This experiment has as its target human recombinant GABAA α5β3γ2 receptor (Homo sapiens (Human), UniProt P18507+P31644). Nature of the experiment: Binding assay, [3H]Ro151788 displacement on membranes of HEK cells. The conditions noted are these: 0.5 nM [3H]Ro151788, 60 minutes at 4° C., Cheng-Prusoff; read-out: hGABAA α5 Ki. On the procedure:
The GABAA α5β3γ2 protein used for the receptor binding assay was derived from membranes produced from HEK cells (Millipore CYL3073) expressing the human recombinant GABAA α5β3γ2 receptor. Cells were stored and cultured in-house according to the instructions provided by the vendor (Millipor). Cell pellet was homogenized in 10 times modified Krebs Henseleit buffer (membrane preparation buffer): 20 mM Tris, 120 mM NaCl, 100 mM KCl, 25 mM CaCl2) and 25 mM MgCl2 pH=7.4 at 4° C. using Ultra Turrax (Janke&Kunkel) maximal speed for 15 seconds. The homogenate was centrifuged at 40,000 g for 30 minutes at 4° C. Supernatant was discarded and the resulting pellet was washed in membrane preparation buffer. Pellet was resuspended in membrane preparation buffer and aliquots of 1.4 mL ampulles were stored at −70° C. until use.
Receptor binding assays were performed in 96-well format in deep-well plates. For each 96-well plate one ampulle of membrane homogenate was thawed and diluted in binding buffer (50 mM Tris pH=7.4, 100 mM KCl) and 200 μL was dispensed into each well. Radioligand [^3H]Ro151788 (Perkin Elmer: NET757250UC) was prepared in binding buffer and added to each well in 50 μL volume to give final concentration of 0.5 nM. Test compounds in suitable concentration(s) were added in additional 50 μL. The final assay volume was 300 μL. Incubation was carried out for 60 minutes at 4° C. For non-specific binding 10 μM unlabeled diazepam was used. After incubation samples were filtered over UniFilter® GF/B™ using Filtermate Harvester (Perkin Elmer) and washed with 5×1 mL binding buffer. The plate was dried at 40° C. for an hour and 40 μL Microscint (Perkin Elmer) scintillation cocktail was added to each well. The plate was read in Microbeta (Perkin Elmer).
The specific radioligand binding (SB) was defined as the difference between total binding (Tot) and the non-specific binding (NSB). Results are expressed as a percent inhibition of specific binding obtained in the presence of compound of interest.
For IC50 and Ki determination a minimum of six drug concentrations in triplicate were used. […] Ki values (i.e. inhibition constants) were calculated using the Cheng-Prusoff equation Ki=IC50/[1+(L/KD)], where [L] is the radioligand concentration and KD the affinity of the labelled ligand for receptor. KD was determined from the Saturation analyses.

Our source for the Ki values is patent publication US12370182B2, “Bicyclic derivatives as GABAA A5 receptor modulators” (RICHTER GEDEON NYRT., priority 2018, dated 2025).

Chain of human recombinant GABAA α5β3γ2 receptor (P31644 32-462): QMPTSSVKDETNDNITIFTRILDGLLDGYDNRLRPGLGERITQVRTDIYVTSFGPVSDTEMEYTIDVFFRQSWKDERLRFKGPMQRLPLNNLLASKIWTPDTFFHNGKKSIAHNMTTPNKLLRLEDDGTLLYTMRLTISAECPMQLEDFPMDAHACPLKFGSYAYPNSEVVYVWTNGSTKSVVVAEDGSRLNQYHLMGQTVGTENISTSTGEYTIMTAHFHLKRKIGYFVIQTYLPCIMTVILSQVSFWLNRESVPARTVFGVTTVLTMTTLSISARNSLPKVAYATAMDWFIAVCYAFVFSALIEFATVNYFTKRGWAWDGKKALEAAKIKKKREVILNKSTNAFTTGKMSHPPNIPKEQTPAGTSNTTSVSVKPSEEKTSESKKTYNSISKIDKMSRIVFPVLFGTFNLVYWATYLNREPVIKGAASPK
Chain of human recombinant GABAA α5β3γ2 receptor (P28472 26-473 partner): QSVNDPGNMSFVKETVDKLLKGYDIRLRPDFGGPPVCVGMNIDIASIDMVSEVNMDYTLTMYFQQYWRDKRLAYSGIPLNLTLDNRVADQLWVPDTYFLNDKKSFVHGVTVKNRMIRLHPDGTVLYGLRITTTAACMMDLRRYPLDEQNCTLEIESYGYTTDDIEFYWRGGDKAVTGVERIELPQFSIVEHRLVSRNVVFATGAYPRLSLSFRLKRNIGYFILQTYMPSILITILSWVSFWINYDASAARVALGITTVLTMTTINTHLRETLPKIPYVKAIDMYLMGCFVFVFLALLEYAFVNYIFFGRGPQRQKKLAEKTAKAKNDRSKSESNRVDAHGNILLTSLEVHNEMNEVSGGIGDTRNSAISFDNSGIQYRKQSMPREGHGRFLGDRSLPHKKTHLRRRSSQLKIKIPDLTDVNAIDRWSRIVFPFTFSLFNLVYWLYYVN
Chain of human recombinant GABAA α5β3γ2 receptor (P18507 40-475): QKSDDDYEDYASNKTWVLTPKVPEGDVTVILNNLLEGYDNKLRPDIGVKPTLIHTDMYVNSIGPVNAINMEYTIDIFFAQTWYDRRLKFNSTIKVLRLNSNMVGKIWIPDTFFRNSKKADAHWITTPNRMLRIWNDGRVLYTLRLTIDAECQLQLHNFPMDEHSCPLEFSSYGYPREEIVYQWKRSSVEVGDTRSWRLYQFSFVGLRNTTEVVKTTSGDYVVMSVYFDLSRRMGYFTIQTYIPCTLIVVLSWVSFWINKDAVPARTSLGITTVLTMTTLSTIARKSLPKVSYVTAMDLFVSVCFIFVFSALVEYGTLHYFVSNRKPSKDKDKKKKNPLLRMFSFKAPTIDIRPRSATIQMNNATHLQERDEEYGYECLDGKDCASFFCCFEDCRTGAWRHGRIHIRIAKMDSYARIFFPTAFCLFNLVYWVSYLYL

`CC(=O)N1CCc2nc(OCc3c(-c4ccc(F)cc4)noc3C)ccc2C1` [Example 1, 1-[2-{[3-(4-fluorophenyl)-5-methyl-1,2-oxazol-4-yl]methoxy}-7,8-dihydro-1,6-naphthyridin-6(5H)-yl]ethanone]: the Ki was determined as 2.8 nM. The result for `Cc1onc(-c2ccc(F)cc2)c1COc1ccc2c(n1)CCN(C(=O)c1ccno1)C2` [Example 3, 2-{[3-(4-fluorophenyl)-5-methyl-1,2-oxazol-4-yl]methoxy}-6-(1,2-oxazole-5-carbonyl)-5,6,7,8-tetrahydro-1,6-naphthyridine] reads 5 nM; that for `Cc1onc(-c2ccc(F)cc2)c1COc1ccc2c(n1)CCN(C(=O)C1CCC1)C2` [Example 4, 6-cyclobutanecarbonyl-2-{[3-(4-fluorophenyl)-5-methyl-1,2-oxazol-4-yl]methoxy}-5,6,7,8-tetrahydro-1,6-naphthyridine], 16 nM.

On to `Cc1onc(-c2ccc(F)cc2)c1COc1ccc2c(n1)CCN(C(=O)C1CC1)C2` [Example 5, 6-cyclopropanecarbonyl-2-{[3-(4-fluorophenyl)-5-methyl-1,2-oxazol-4-yl]methoxy}-5,6,7,8-tetrahydro-1,6-naphthyridine], for which the Ki was 7.8 nM. As for `Cc1onc(-c2ccc(F)cc2)c1COc1ccc2c(n1)CCN(C(=O)C1CCCO1)C2` (centres unmarked) [Example 7, 2-{[3-(4-fluorophenyl)-5-methyl-1,2-oxazol-4-yl]methoxy}-6-(oxolane-2-carbonyl)-5,6,7,8-tetrahydro-1,6-naphthyridine], the Ki came to 6.8 nM. `Cc1cc(C(=O)N2CCc3nc(OCc4c(-c5ccc(F)cc5)noc4C)ccc3C2)no1` [Example 10, 2-{[3-(4-fluorophenyl)-5-methyl-1,2-oxazol-4-yl]methoxy}-6-(5-methyl-1,2-oxazole-3-carbonyl)-5,6,7,8-tetrahydro-1,6-naphthyridine]: the Ki amounted to 21 nM. Take `Cc1onc(-c2ccc(F)cc2)c1COc1ccc2c(n1)CCN(C(=O)c1ccn(C)c1)C2` [Example 11, 2-{[3-(4-fluorophenyl)-5-methyl-1,2-oxazol-4-yl]methoxy}-6-(1-methyl-1H-pyrrole-3-carbonyl)-5,6,7,8-tetrahydro-1,6-naphthyridine]: the Ki turned out to be 11 nM.

Turning to `Cc1onc(-c2ccc(F)cc2)c1COc1ccc2c(n1)CCN(C(=O)C(F)(F)F)C2` [Example 12, 2,2,2-trifluoro-1-(2-{[3-(4-fluorophenyl)-5-methyl-1,2-oxazol-4-yl]methoxy}-5,6,7,8-tetrahydro-1,6-naphthyridin-6-yl)ethan-1-one], the inhibitory constant (Ki) worked out at 14 nM. The result for `Cc1nnn(-c2ccc(F)cc2)c1COc1ccc2c(n1)CCN(C(=O)C1CC1)C2` [Example 19, 6-cyclopropanecarbonyl-2-{[1-(4-fluorophenyl)-4-methyl-1H-1,2,3-triazol-5-yl]methoxy}-5,6,7,8-tetrahydro-1,6-naphthyridine] reads 49 nM. Turning to `Cc1nnn(-c2ccc(F)cc2)c1COc1ccc2c(n1)CCN(C(=O)c1ccno1)C2` [Example 20, 2-{[1-(4-fluorophenyl)-4-methyl-1H-1,2,3-triazol-5-yl]methoxy}-6-(1,2-oxazole-5-carbonyl)-5,6,7,8-tetrahydro-1,6-naphthyridine], the Ki was 24 nM. Regarding `Cc1nnn(-c2ccc(F)cc2)c1COc1ccc2c(n1)CCN(C(=O)C1CC(=O)N(C)C1)C2` (centres unmarked) [Example 21, 4-(2-{[1-(4-fluorophenyl)-4-methyl-1H-1,2,3-triazol-5-yl]methoxy}-5,6,7,8-tetrahydro-1,6-naphthyridine-6-carbonyl)-1-methylpyrrolidin-2-one], the Ki amounted to 35 nM. Consider `Cc1nnn(-c2ccc(F)cc2)c1COc1ccc2c(n1)CCN(C(=O)C(C)C)C2` [Example 22, 1-(2-{[1-(4-fluorophenyl)-4-methyl-1H-1,2,3-triazol-5-yl]methoxy}-5,6,7,8-tetrahydro-1,6-naphthyridin-6-yl)-2-methylpropan-1-one], for which the inhibition constant (Ki) was 57 nM.

In the case of `CCC(=O)N1CCc2nc(OCc3c(C)nnn3-c3ccc(F)cc3)ccc2C1` [Example 24, 1-(2-{[1-(4-fluorophenyl)-4-methyl-1H-1,2,3-triazol-5-yl]methoxy}-5,6,7,8-tetrahydro-1,6-naphthyridin-6-yl)propan-1-one], the Ki turned out to be 46 nM. The result for `Cc1nnn(-c2ccc(F)cc2)c1COc1ccc2c(n1)CCN(C(=O)c1ccncc1)C2` [Example 25, 2-{[1-(4-fluorophenyl)-4-methyl-1H-1,2,3-triazol-5-yl]methoxy}-6-(pyridine-4-carbonyl)-5,6,7,8-tetrahydro-1,6-naphthyridine] reads 29 nM. For the molecule `Cc1nnn(-c2ccc(F)cc2)c1COc1ccc2c(n1)CCN(C(=O)c1ccccn1)C2` [Example 26, 2-{[1-(4-fluorophenyl)-4-methyl-1H-1,2,3-triazol-5-yl]methoxy}-6-(pyridine-2-carbonyl)-5,6,7,8-tetrahydro-1,6-naphthyridine], the Ki was 80 nM. In the case of `Cc1nnn(-c2ccc(F)cc2)c1COc1ccc2c(n1)CCN(C(=O)c1cccc(Cl)c1)C2` [Example 27, 6-(3-chlorobenzoyl)-2-{[1-(4-fluorophenyl)-4-methyl-1H-1,2,3-triazol-5-yl]methoxy}-5,6,7,8-tetrahydro-1,6-naphthyridine], the Ki amounted to 137 nM. `Cc1nnn(-c2ccc(F)cc2)c1COc1ccc2c(n1)CCN(C(=O)C1CCCOC1)C2` (centres unmarked) [Example 30, 2-{[1-(4-fluorophenyl)-4-methyl-1H-1,2,3-triazol-5-yl]methoxy}-6-(oxane-3-carbonyl)-5,6,7,8-tetrahydro-1,6-naphthyridine]: the Ki is 82 nM. The result for `Cc1nnn(-c2ccc(F)cc2)c1COc1ccc2c(n1)CCN(C(=O)C1(C)CCOC1)C2` (centres unmarked) [Example 31, 2-{[1-(4-fluorophenyl)-4-methyl-1H-1,2,3-triazol-5-yl]methoxy}-6-(3-methyloxolane-3-carbonyl)-5,6,7,8-tetrahydro-1,6-naphthyridine] reads 44 nM; that for `Cc1nnn(-c2ccc(Cl)cc2)c1COc1ccc2c(n1)CCN(C(=O)C1CCOCC1)C2` [Example 32, 2-{[1-(4-chlorophenyl)-4-methyl-1H-1,2,3-triazol-5-yl]methoxy}-6-(oxane-4-carbonyl)-5,6,7,8-tetrahydro-1,6-naphthyridine], 22 nM; that for `Cc1nnn(-c2ccc(Cl)cc2)c1COc1ccc2c(n1)CCN(C(=O)c1ccncc1)C2` [Example 33, 2-{[1-(4-chlorophenyl)-4-methyl-1H-1,2,3-triazol-5-yl]methoxy}-6-(pyridine-4-carbonyl)-5,6,7,8-tetrahydro-1,6-naphthyridine], 14 nM. Turning to `CC(=O)N1CCc2ccc(OCc3c(C)nnn3-c3ccc(F)cc3)nc2C1` [Example 34, 1-(2-{[1-(4-fluorophenyl)-4-methyl-1H-1,2,3-triazol-5-yl]methoxy}-5,6,7,8-tetrahydro-1,7-naphthyridin-7-yl)ethan-1-one], the Ki was found to be 112 nM.

As for `COC1CCC(C(=O)N2CCc3nc(OCc4c(C)nnn4-c4ccc(F)cc4)ccc3C2)CC1` (centres unmarked) [Example 35, 2-{[1-(4-fluorophenyl)-4-methyl-1H-1,2,3-triazol-5-yl]methoxy}-6-(4-methoxycyclohexanecarbonyl)-5,6,7,8-tetrahydro-1,6-naphthyridine], the inhibitory constant (Ki) came out at 71 nM. As to `CC(=O)N1CCc2nc(OCc3c(C)nnn3-c3ccc(Cl)cc3)ccc2C1` [Example 36, 1-(2-{[1-(4-chlorophenyl)-4-methyl-1H-1,2,3-triazol-5-yl]methoxy}-5,6,7,8-tetrahydro-1,6-naphthyridin-6-yl)ethan-1-one], the Ki is 9.8 nM. Turning to `Cc1nnn(-c2ccc(F)cc2)c1COc1ccc2c(n1)CCN(C(=O)c1ccc(C(F)(F)F)nc1)C2` [Example 37, 2-{[1-(4-fluorophenyl)-4-methyl-1H-1,2,3-triazol-5-yl]methoxy}-6-[6-(trifluoromethyl)pyridine-3-carbonyl]-5,6,7,8-tetrahydro-1,6-naphthyridine], the inhibition constant Ki was found to be 69 nM. `Cc1nnn(-c2ccc(Cl)cc2)c1COc1ccc2c(n1)CCN(C(=O)[C@H]1CCOC1)C2` [Example 38, 2-{[1-(4-chlorophenyl)-4-methyl-1H-1,2,3-triazol-5-yl]methoxy}-6-[(3S)-oxolane-3-carbonyl]-5,6,7,8-tetrahydro-1,6-naphthyridine]: the inhibition constant Ki was 18 nM.

Turning to `Cc1nnn(-c2ccc(F)cc2)c1COc1ccc2c(n1)CCN(C(=O)c1cccnc1)C2` [Example 39, 2-{[1-(4-fluorophenyl)-4-methyl-1H-1,2,3-triazol-5-yl]methoxy}-6-(pyridine-3-carbonyl)-5,6,7,8-tetrahydro-1,6-naphthyridine], the Ki was 24 nM.

What is called Ki is the equilibrium dissociation constant of an inhibitor or competing ligand from its target.
